Tests used:
Format in all cases: cell-based, human
[1] = system: Pdx1 expressing pancreatic progenitor cells (Stage 4/Stage 5 differentiation); assay: TNKS/Wnt inhibitor in Stage 4 and/or Stage 5 medium; cell composition at end of Stage 5
Excerpt: (§1) In certain embodiments described herein, induced pluripotent stem cells are differentiated into SC-Di cells or precursors thereof in vitro. An exemplary differentiation protocol is outlined in FIG. 39. Endocrine progenitor cells produced by Stage 5 can comprise a mixture of cell types. For example, the composition can include NKX6.1+/ISL1+β cells, NKX6.1−/ISL1+α cells, NKX6.1−/ISL1− double negative cells, and enterochromaffin (EC) cells (FIG. 18B and FIG. 18C). For example, FIG. 18B and FIG. 18C show a Stage 5 process intermediate cell composition that comprises about 25% NKX6.1+/ISL1+β cells, about 14.5% NKX6.1−/ISL1+α cells, about 42.4% NKX6.1−/ISL1− double negative cells, and about 18.0% enterochromaffin (EC) cells. For certain applications described herein, such as the production of SC-islets, both NKX6.1−/ISL1− double negative (DN)SC-cells and SC-enterochromaffin (EC) cells are off target cell populations. To improve the Stage 5 cellular composition (e.g., increased percentage of NKX6.1+/ISL1+ SC-β cells and NKX6.1−/ISL1+ SC-α cells; decreased percentage of NKX6.1−/ISL1− SC-DN cells and SC-EC cells), modifications to the Stage 4 and/or Stage 5 medium were evaluated (FIG. 19).
As shown in FIGS. 20A-20B and FIGS. 21A-21B, TNKS/Wnt inhibition during Stage 4 increased the percentage of NKX6.1+/ISL1+β cells (FIG. 21A; FIGS. 20A-20B) and decreased the percentage of NKX6.1−/ISL1− double negative cells (FIG. 21B; FIGS. 20A-20B) at the end of stage 5. Multiple TNKS/Wnt inhibitors that increase the percentage of NKX6.1+/ISL1+β cells at the end of Stage 5 at least two-fold over the control were identified (FIG. 28).
FIGS. 30A-30B show TNKS inhibition increases the percentage of NKX6.1+/ISL1+SC-β cells and decreases the percentage of NKX6.1−/ISL1− SC-DN cells at the end of Stage 5 when TNK inhibitor is used through several times points through Stage 4 or Stage 4 through Stage 5, including S4d3-S4d6, S4d3-S5d2, S4d5-S4d6, and S4d5-S5d2.

[2] = system: Pdx1 expressing pancreatic progenitor cells (Stage 4 differentiation); assay: PKC inhibitor in modified stage 4 medium during S4d5-S4d6; cell composition at end of Stage 5; conditions: for change in percentage of NKX6.1+/ISL1+ β cells at the end of Stage 5: FIG. 33A; for change in percentage of NKX6.1+/ISL1− SC-EC cells at the end of Stage 5: FIG. 33B
[3] = system: Pdx1 expressing pancreatic progenitor cells (Stage 4/Stage 5 differentiation); assay: PKC activator in Stage 4 and/or Stage 5 medium; FACS analysis of cell composition at end of Stage 5
Excerpt: as §1
To further improve the Stage 5 cellular composition (e.g., increased percentage of NKX6.1+/ISL1+β cells and NKX6.1−/ISL1+α cells; decreased percentage of NKX6.1−/ISL1− double negative cells and enterochromaffin (EC) cells), further modifications to the Stage 4 and/or Stage 5 medium were evaluated (FIG. 19).
As shown in FIGS. 25A-25B and FIG. 27, PKC activation (0.5 μM phorbol 12,13-dibutyrate) during Stage 4 decreases the percentage of VMAT1+ SC-EC cells at the end of Stage 5 from 24.8% to 4.9%.
FIGS. 35A-35B show PKC activation increases the percentage of NKX6.1−/ISL1+ SC-α cells and decreases the percentage of NKX6.1+/ISL1− SC-EC cells at the end of Stage 5 when a PKC activator is used through several times points through Stage 4 or Stage 4 through Stage 5, including S4d3-S4d6, S4d3-S5d2, S4d5-S4d6, and S4d5-S5d2.

Cc1cc(N2C[C@@H](C)N[C@@H](C)C2)ncc1-c1ccc(-c2nc3c(ccn3C)c(=O)[nH]2)cc1 [AZ6102]
change in percentage of NKX6.1+/ISL1+ SC-β cells at the end of stage 5 vs control ([1]; 0.5 μM during S4d5-S4d6, FACS, FIG. 30A): increased
change in percentage of NKX6.1+/ISL1+ SC-β cells at the end of stage 5 vs control ([1]; 0.5 μM during Stage 4 or Stage 5, FIG. 31A): increased
change in percentage of NKX6.1−/ISL1− SC-DN cells at the end of stage 5 vs control ([1]; 0.5 μM during Stage 4 or Stage 5, FIG. 31B): decreased

COc1ccc2c(c1)c(C1=C(c3c[nH]c4ccccc34)C(=O)NC1=O)cn2CCCN(C)C [Go 6983]
change in percentage of NKX6.1+/ISL1+ β cells at the end of Stage 5 [2]: decrease
change in percentage of NKX6.1+/ISL1− SC-EC cells at the end of Stage 5 [2]: decrease

Cn1cc(C2=C(c3cn(CCCSC(=N)N)c4ccccc34)C(=O)NC2=O)c2ccccc21 [Ro 31-8220]
change in percentage of NKX6.1+/ISL1+ β cells at the end of Stage 5 [2]: decrease
change in percentage of NKX6.1+/ISL1− SC-EC cells at the end of Stage 5 [2]: decrease

CN1CCN(c2nc(C3=C(c4c[nH]c5ccccc45)C(=O)NC3=O)c3ccccc3n2)CC1 [Sotrastaurin]
change in percentage of NKX6.1+/ISL1+ β cells at the end of Stage 5 [2]: decrease
change in percentage of NKX6.1+/ISL1− SC-EC cells at the end of Stage 5 [2]: decrease

CCCC(=O)O[C@@H]1[C@@H](C)[C@@]2(O)[C@@H](C=C(CO)C[C@]3(O)C(=O)C(C)=C[C@@H]23)[C@@H]2C(C)(C)[C@]12OC(=O)CCC [phorbol 12,13-dibutyrate, Phorbol 12,13-dibutyrate]
percentage of NKX6.1+/ISL1− SC-EC cells at the end of Stage 5 ([3]; 0.5 μM during S4d5-S5d2, control 32.1%): 14.7%
percentage of NKX6.1−/ISL1+ SC-α cells at the end of Stage 5 ([3]; 0.5 μM during S4d5-S5d2, control printed 1 1.3%): 38.2%
percentage of glucagon+ SC-α cells at the end of Stage 5 ([3]; 0.5 μM during Stage 4, control 5.7%): 23.7%
percentage of ARX+ SC-α cells at the end of Stage 5 ([3]; 0.5 μM during Stage 4, control 10.4%): 38.4%
percentage of VMAT1+ SC-EC cells at the end of Stage 5 ([3]; 0.5 μM during Stage 4, control 24.8%): 4.9%
percentage of CDX2+ SC-EC cells at the end of Stage 5 ([3]; 0.5 μM during Stage 4, control 66.4%): 21.5%
change in percentage of glucagon positive SC-α cells at the end of stage 5 vs control ([3]; 0.5 μM during stage 4, FACS, FIG. 23): increased
change in percentage of ARX positive SC-α cells at the end of stage 5 vs control ([3]; 0.5 μM during stage 4, FACS, FIG. 24): increased
change in percentage of VMAT1 positive SC-EC cells at the end of stage 5 vs control ([3]; 0.5 μM during stage 4, FACS, FIG. 25): decreased
change in percentage of CDX2 positive SC-EC cells at the end of stage 5 vs control ([3]; 0.5 μM during stage 4, FACS, FIG. 26): decreased
